The values that follow come from article PMC7595212, “Functional interaction between Ghrelin and GLP-1 regulates feeding through the vagal afferent system” (Scientific Reports, 2020).

Series [1] deals with NG neurons. The experiment in a line: Whole-cell voltage-clamp (patch-clamp) of NG neurons. Type of series: cell-based, mouse. The settings on record: whole-cell voltage clamp -80 to 40 mV, 10 nM peptide, Ghsr- and Glp1r-expressing NG neurons, n = 10. As to the method:
NG neurons were perfused in the bath solution (Composition in mmol L^−1: NaCl 126.2, KCl 3.1, MgCl2 2, CaCl2 2, HEPES 10, glucose 10; pH 7.39, osmolarity 320 mOsm) with 10 nM ghrelin or 10 nM GLP-1. Whole-cell recordings were performed using patch pipettes of 3.5–5 MΩ resistance backfilled with a solution (Composition in mmol L^−1: K gluconate 125, KCl 8, MgCl2 4, HEPES 10, ATP 2, GTP 0.4, Na2-creatine phosphate 5; pH 7.23, osmolarity 300 mOsm). After obtaining a giga-seal, membrane access resistance was monitored for 5–10 min until it became stable at 10 MΩ or less. Data were acquired from isolated vagal sensory neurons of mice in Axopatch 1D amplifier (Molecular Devices) filtered at 1 kHz. Signals were digitised in analogue-to-digital converter (Axon Digidata 1322A; Molecular Devices), and analysed on a computer running pCLAMP 10 software (Molecular Devices).
All neurons collected in retrograde tracing studies and used to assess calcium response and patch-clamp recording were picked up by the UnipicK + system (NeuroInDx) immediately after each measurement. […] In the retrograde tracer studies, percentage of stomach-innervating NG neurons expressing Ghsr or Glp1r were analysed. […]

The test system of series [2] is gastric vagal afferent. Nature of the series: Multi-unit nerve discharge of the gastric vagal afferent. Type of series: in vivo, rat. To be noted: anaesthetised rats, i.v., n = 3. As to the method:
Multi-unit neural discharge in gastric vagal afferent fibres was recorded extracellularly. Rats were anesthetised by an i.p. injection of urethane (1 g/kg) (Sigma-Aldrich). The electrophysiological study was performed entirely under anaesthetisation as described previously. After the gastric branch of the vagal nerve was visualised, we placed filaments isolated from the peripheral cut end of the ventral branch for the recording of afferent nerve activity via a pair of silver wire electrodes connected through an alternating current-coupled differential amplifier (ER-1; Cygnus Technology) to PowerLab (AD Instruments). The nerve activities were recorded and analysed using LabChart v8 software (AD Instruments). […] After the first administration, nerve discharges from the multi-unit afferents were analysed for 60 min.

Series [3] is described as follows: Pharmacokinetics analysis: plasma profiles of ghrelin and GLP-1 in rats. The settings on record: i.v. into femoral vein, peptide administered first (GLP-1 3 nmol, ghrelin 1.5 nmol), GLP-1 by active ELISA, ghrelin by enzyme immunoassay. As to the method: Blood was withdrawn from the right jugular vein at: 1, 2.5, 5, 10, 20, 30, 32.5, 35, 40, 50, and 60 min after the first injection. Blood was collected into tubes containing 1.25 mg EDTA and aprotinin (500 kallikrein-inhibiting units/ml blood) (Wako Pure Chemical Industries), and all samples were centrifuged within 2 h of collection. […] For ghrelin assay, 1 M HCl (100 µl/ml) was added to the plasma. All samples were stored at − 70 °C until analysis.

Series [4] has as its system Fos expression in NG, NTS and ARC neurons. The experiment in a line: Fos immunohistochemical staining (NG, NTS, ARC). Type of series: in vivo, mouse. The settings on record: mice. As to the method:
The NG and brain were removed, fixed overnight in a fixative solution containing 4% PFA, cryoprotected in 0.1 M PB containing 20% sucrose and embedded in Tissue-Tek O.C.T. compound. The 10 µm sections were mounted on slides permeabilized with 0.3% triton X-100 in PBS (PBS-T). After permeabilization, antigens were retrieved by heating the sections in an autoclave for 1 h at 70 °C with a Histo VT one (Nakalai Teaque, Kyoto, Japan). All sections were blocked with 5% goat-serum in PBS-T. Three specimens each of NG, NTS and ARC were incubated for 48 h at 4 °C with c-Fos antiserum (Supplementary Table S1), then incubated for 1 h with Alexa Fluor 488- (NTS and ARC) or 594- (NG) conjugated anti-rabbit IgG at room temperature (Supplementary Table S1). To stain nuclei of the neurons, the specimens from NG were incubated with Alexa Fluor 488-conjugated Anti-NeuN IgG (Supplementary Table S1) at RT for 1 h, and the specimens from NTS and ARC were incubated overnight with Alexa Fluor 555-conjugated anti-NeuN IgG (Supplementary Table S1) at 4 °C. Images of immunofluorescence staining were observed using a Nikon C2 + confocal laser scanning microscope (Nikon, Tokyo, Japan). Fos-positive neurons in three specimens from each animal were counted using ImageJ.

The test system of series [5] is rats. The experiment in a line: Feeding experiments in rats (1-h food intake). To be noted: GLP-1 3 nmol i.v. Type of series: in vivo, rat. As to the method: First, rats fasted for 8 h (02:00–10:00) received an i.v. injection of human GLP-1 (3 nmol/100 µl saline, CS Bio) or saline at 10:00, then they were administered human ghrelin (1.5 nmol/100 µl saline, Peptide Institute) or saline injection at 10:30. Food intake was determined from 10:30 to 11:30. Secondly, rats fed ad libitum received an i.v. ghrelin (1.5 nmol/100 µl) or saline injection at 10:00 or 19:30, then they were administered GLP-1 (3 nmol/100 µl) or saline injection at 10:30 or 20:00. Food intake was measured from 10:30 to 11:30 or 20:00 to 21:00. Thirdly, mice fasted for 8 h (02:00–10:00) received an i.p. injection of ghrelin (1.5 nmol/100 µl saline) or saline at 10:00, then they were administered human GLP-1 (3 nmol/100 µl saline) or saline at 10:30 and 1 h food intake (10:30–11:30) was measured. Fourthly, Ghsr^−/− and their wild-type mice fasted for 12 h (22:00–10:00) were administered ghrelin (1.5 nmol/50 µl saline, i.p.) at 10:00, then they were administered GLP-1 (3 nmol/50 µl saline, i.p.) or saline injection at 10:30, and food intake was measured from 10:30 to 11:30. Finally, Glp1r ^−/− and their wild-type mice were administered GLP-1 (3 nmol/50 µl, i.p.) or saline at 10:00, subsequently given a ghrelin (1.5 nmol/50 µl, i.p.) or saline injection at 10:30, food intake was measured from 10:30 to 11:30. […]

For series [6], the system named is mice. Nature of the series: Feeding experiments in mice (1-h food intake). Type of series: in vivo, mouse. To be noted: for food intake, GLP-1 preadministration before ghrelin: GLP-1 3 nmol i.p. 30 min before ghrelin 1.5 nmol i.p., n = 8.
The subject of series [7] is NG neurons. Nature of the series: Calcium response in single neurons isolated from NG (Fura-2). Type of series: cell-based, mouse. As to the method:
Bilateral NGs resected from mice were immersed in hibernateA media (BrainBits). Each ganglion was cut into five pieces, placed in HibernateA minus Ca^2+ media (BrainBits) containing 1 mg/ml collagenase/dispase (Roche Diagnostics) and incubated for 90 min at 37 °C. Neurons were dispersed by gentle titration through pipettes and they were washed three times with fresh NbActive4 media (BrainBits) and plated onto poly-D-lysine/laminin (BD Bioscience)-coated coverslips, followed by incubation (5% CO2 in air at 37 °C) for 24 h. Cultures were rinsed in 10 mM phosphate buffered saline (PBS) and fixed with 4% paraformaldehyde (PFA) in phosphate buffer (PB). Ganglion neurons were incubated with the first primary antibodies; anti-GLP-1R or anti-GHSR at 4 °C overnight, and then with the second primary antibodies; anti-GHSR or anti-Pan Neuronal Marker (Supplementary Table S1) at 4 °C overnight. They were then reacted with corresponding Alexa Fluor 488- or 594-conjugated secondary IgG (Supplementary Table S1) at RT for 1 h. Neurons were observed under a fluorescence microscope (Olympus).
Ca^2+ imaging was performed under continuous perfusion of NG neurons with Krebs–Ringer-Henseleit buffer (Composition in mmol L^−1: NaCl 119, KCl 4.74, CaCl2 2.54, MgCl2 1.19, KH2PO4 1.19, NaHCO3 25, HEPES 10, pH 7.4) at a flow rate of 600 μl/min at 37 °C. NG neurons were loaded with 1 µM Fura-2 acetoxymethyl ester (Dojindo Labs) in NbActive4 media at 37 °C for 30 min. For Ca^2+ measurements in an integrated fluorescence microscope (Keyence BZ-X700), images were captured at 10-s intervals; 340- and 380-nm excitation filters were used for Fura-2-AM dual-wavelength excitation ratio imaging. NG neurons were stimulated with 10 nM either ghrelin or GLP-1, and 10 min later stimulated with the other peptide. At the end of experiments, cells were exposed to 100 mM KCl (Nacalai Tesque) for 2 min. […] All data were expressed as percent changes from the average of the 340/380 fluorescence ratio in response to ghrelin or GLP-1.
All neurons collected in retrograde tracing studies and used to assess calcium response and patch-clamp recording were picked up by the UnipicK + system (NeuroInDx) immediately after each measurement. RNA was isolated from single neurons with PicoPure RNA Isolation Kit (Applied Biosystems). qRT-PCR (primer sets, Supplementary Table S2) was conducted with SYBR Premix Ex Taq (2 ×) (Takara Bio Inc.) on a Thermal Cycler Dice Real-Time System II (Takara Bio Inc.). In the retrograde tracer studies, percentage of stomach-innervating NG neurons expressing Ghsr or Glp1r were analysed. In the patch-clamp recording, only Ghsr^+ Glp1r^+ neuron cells were used for the final analysis.

Structures are written as SMILES.

For the compound `CC[C@H](C)[C@H](NC(=O)[C@H](Cc1ccccc1)NC(=O)[C@H](CCC(=O)O)NC(=O)[C@H](CCCCN)NC(=O)[C@H](C)NC(=O)[C@H](C)NC(=O)[C@H](CCC(N)=O)NC(=O)CNC(=O)[C@H](CCC(=O)O)NC(=O)[C@H](CC(C)C)NC(=O)[C@H](Cc1ccc(O)cc1)NC(=O)[C@H](CO)NC(=O)[C@H](CO)NC(=O)[C@@H](NC(=O)[C@H](CC(=O)O)NC(=O)[C@H](CO)NC(=O)[C@@H](NC(=O)[C@H](Cc1ccccc1)NC(=O)[C@@H](NC(=O)CNC(=O)[C@H](CCC(=O)O)NC(=O)[C@H](C)NC(=O)[C@@H](N)Cc1c[nH]cn1)[C@@H](C)O)[C@@H](C)O)C(C)C)C(=O)N[C@@H](C)C(=O)N[C@@H](Cc1c[nH]c2ccccc12)C(=O)N[C@@H](CC(C)C)C(=O)N[C@H](C(=O)N[C@@H](CCCCN)C(=O)NCC(=O)N[C@@H](CCCNC(=N)N)C(N)=O)C(C)C` [GLP-1, glucagon-like peptide 1], the “current in I/V relationship” value in series [1] is “generated depolarizing current”. In addition, in series [2] (ghrelin 1.5 nmol or GLP-1 1 nmol, peptide given first), the “gastric vagal afferent activity” value is reported as “enhanced it”. Moreover, the “gastric vagal afferent activity, second peptide” value in series [2] (peptide given 30 min after the other peptide (ghrelin 1.5 nmol, GLP-1 1 nmol)) is reported as “GLP-1-enhanced activity was not observed”. Besides, the “time at which plasma concentration returned to the base” value in series [3] is reported as 30 min. Further, the “ghrelin-induced Fos in the ARC after GLP-1 preadministration” value in series [4] (GLP-1 3 nmol i.p. 30 min before ghrelin 1.5 nmol i.p., n = 4) was “abolished ghrelin-induced Fos in the ARC”. Besides, the “Fos-positive neurons in left NG” value in series [4] (GLP-1 3 nmol i.p. alone, n = 3) was found to be 70.5%. In addition, the “Fos-positive neurons in right NG” value in series [4] (GLP-1 3 nmol i.p. alone, n = 3) is 71.0%. Also, in series [4] (GLP-1 3 nmol i.p. alone, n = 4), the “Fos in the NTS” value is listed as “induced Fos in the NTS”. Besides, the food intake entry in series [5] (8-h fasted rats, compared with saline, n = 8) was “significantly reduced food intake”; in series [5] (rats fed ad libitum, dark phase (20:00-21:00), n = 6), “suppressed feeding”. Besides, the “food intake, GLP-1 preadministration before ghrelin” value in series [6] (Glp1r-/- mice fed ad libitum) is “did not affect ghrelin-induced feeding”; in series [6] (wild-type mice (of Glp1r-/-) fed ad libitum) it was “abolished ghrelin-induced feeding”. For the same compound, the “feeding effect of the peptide administered second” value in series [6] (mice, two peptides in a 60-min interval, peptide given 60 min after the first peptide) is listed as “exhibited its proper effect”. Besides, in series [7] (Glp1r+Ghsr+ neurons, 10 nM GLP-1 10 min after 10 nM ghrelin, n = 10), the “calcium response, GLP-1 after ghrelin” value is reported as “failed to evoke calcium response”. In addition, the calcium response entry in series [7] (Glp1r+Ghsr+ neurons, 10 nM GLP-1 given first, n = 10) is listed as “evoked calcium response”; in series [7] (Glp1r+Ghsr- neurons, 10 nM GLP-1), “evoked calcium response”; in series [7] (Glp1r-Ghsr- neurons, 10 nM GLP-1), “not”.
